Test results reported in publication PMC10816640, “Discovery of Novel Diphenyl Acrylonitrile Derivatives That Promote Adult Rats’ Hippocampal Neurogenesis” (International Journal of Molecular Sciences, 2024).
“Also recorded” adds a separate entry of the source.

Tests used:
[1] = system: progenitors in rodents’ hippocampi; parameters: method as in PMID 28525839; details: cited from earlier work
[2] = system: newborn cells in the subgranular zone; assay: BrdU+ newborn cells, rats sacrificed 28 days after BrdU; type: in vivo, rat; details: nine-week-old rats (n = 2), i.p. 4.0 mg/kg/day for 28 days, BrdU pulse, Figure 7A
Experimental: The study employed a rat model, wherein nine-week-old rats were administered intraperitoneally with the compound at a dose of 4.0 mg/kg/day for 28 days and then treated with a pulse of BrdU. Instead of sacrificing the rats 24 h after the BrdU injections, the rats were sacrificed after another 28 days. The brains were then isolated and cryosectioned. Eight randomly selected slices were subjected to immunohistochemical staining. This staining enabled the co-localization of the BrdU-incorporated cells with the NeuN marker, enabling the definition of the compounds that could promote the differentiation of newborn neural progenitor cells into mature functional neurons. The compounds were dissolved in reagent-grade soybean oil containing 10% ethanol to reach a drug concentration of 2.8 mg/mL. The rats in the experimental group received intraperitoneal injections of the compounds at a dose of 4.0 mg/kg/d for 28 consecutive days. As a control, the vehicle group was administered injections of reagent-grade soybean oil containing 10% ethanol. BrdU (Sigma-Aldrich, St. louis, MA, USA) solution, prepared in physiological saline at a concentration of 10 mg/mL, was administered to all rats on day 29. Each rat received two injections of BrdU at a dosage of 50 mg/kg, with a 2 h interval between injections. The rats were euthanized 24 h (or 28 days) after the final BrdU injection. Two or four rats per group were anesthetized using pentobarbital sodium (70 mg/kg) and subsequently perfused with physiological saline. The brain tissue was carefully dissected and fixed in 4% paraformaldehyde at 4 °C for one week. Next, the brain tissue underwent dehydration using a phosphate-buffered saline (PBS) solution containing 20% to 30% sucrose. Finally, the brain tissue was cryosectioned into slices with a thickness of 30 μm, and eight slices were randomly selected for further analysis. The assessment of new cell proliferation was conducted using BrdU staining. To eliminate endogenous peroxides, sections were exposed to 1% H2O2 for 30 min at RT. Cellular denaturation was achieved by treating the sections with 2 M HCl at 37 °C for 1 h, followed by rinsing in 0.1 M borate buffer (pH 8.5). Tissue sections were subjected to blocking in a solution consisting of 5% goat serum and 0.5% Triton X-100 in PBS at RT for 1–2 h. The specimens were then incubated overnight at 4 °C with a mouse primary antibody specific to BrdU (diluted at 1:500; Millipore, Billerica, MA, USA). Subsequently, the DAB kit was employed for 2 h of incubation at RT. The differentiation process of NPCs was visualized through the utilization of the NeuN/BrdU double staining technique. Tissue sections were subjected to an incubation period in a blocking buffer at RT for 1 to 2 h. The specimens were exposed to a rabbit anti-NeuN antibody (diluted at 1:500, Abcam, Cambridge, MA, UK) and a primary antibody, BrdU (diluted at 1:500), overnight at 4 °C. Afterwards, the sections were treated with anti-mouse 488 and anti-rabbit TRITC secondary antibodies for 2 h at RT. The data were presented as mean ± SEM (standard error of the mean) and visualized using GRAPHPAD PRISM 6 (Graphpad Software, La Jolla, CA, USA). Statistical analysis was conducted utilizing one-way analysis of variance (ANOVA) followed by a post hoc test. Subsequent to the statistical treatment, the observed discrepancies were determined to be statistically significant (p < 0.05).

[3] = system: newborn neural progenitor cells (differentiation into mature neurons); assay: Differentiation stage of neurogenesis: NeuN/BrdU double staining, rats sacrificed 28 days after BrdU; type: in vivo, rat; details: for neurogenesis-promoting activity (number of NeuN+ and BrdU+ cells), differentiation stage: nine-week-old rats (n = 4), i.p. 4.0 mg/kg
Excerpt: (§1) Previous in vitro or in vivo studies mainly focused on stimulating the proliferation effect of the small molecules. In this study, a two-step protocol was employed. First, the stimulating function of the compounds on progenitor cells in the rodents’ hippocampi was examined with using bromodeoxyuridine (BrdU) labeling. Next, the potent compounds were further screened to ascertain their ability to promote the differentiation of neural progenitor cells, as confirmed by dual labeling of BrdU and NeuN (neuronal nuclear antigen).
The study employed a rat model, wherein nine-week-old rats were administered intraperitoneally with the compound at a dose of 4.0 mg/kg/day for 28 days and then treated with a pulse of BrdU. Instead of sacrificing the rats 24 h after the BrdU injections, the rats were sacrificed after another 28 days. The brains were then isolated and cryosectioned. Eight randomly selected slices were subjected to immunohistochemical staining. This staining enabled the co-localization of the BrdU-incorporated cells with the NeuN marker, enabling the definition of the compounds that could promote the differentiation of newborn neural progenitor cells into mature functional neurons.
(§2) The compounds were dissolved in reagent-grade soybean oil containing 10% ethanol to reach a drug concentration of 2.8 mg/mL. The rats in the experimental group received intraperitoneal injections of the compounds at a dose of 4.0 mg/kg/d for 28 consecutive days. As a control, the vehicle group was administered injections of reagent-grade soybean oil containing 10% ethanol. BrdU (Sigma-Aldrich, St. louis, MA, USA) solution, prepared in physiological saline at a concentration of 10 mg/mL, was administered to all rats on day 29. Each rat received two injections of BrdU at a dosage of 50 mg/kg, with a 2 h interval between injections. The rats were euthanized 24 h (or 28 days) after the final BrdU injection.
(§3) Two or four rats per group were anesthetized using pentobarbital sodium (70 mg/kg) and subsequently perfused with physiological saline. The brain tissue was carefully dissected and fixed in 4% paraformaldehyde at 4 °C for one week. Next, the brain tissue underwent dehydration using a phosphate-buffered saline (PBS) solution containing 20% to 30% sucrose. Finally, the brain tissue was cryosectioned into slices with a thickness of 30 μm, and eight slices were randomly selected for further analysis.
The differentiation process of NPCs was visualized through the utilization of the NeuN/BrdU double staining technique. Tissue sections were subjected to an incubation period in a blocking buffer at RT for 1 to 2 h. The specimens were exposed to a rabbit anti-NeuN antibody (diluted at 1:500, Abcam, Cambridge, MA, UK) and a primary antibody, BrdU (diluted at 1:500), overnight at 4 °C. Afterwards, the sections were treated with anti-mouse 488 and anti-rabbit TRITC secondary antibodies for 2 h at RT.
(§4) The data were presented as mean ± SEM (standard error of the mean) and visualized using GRAPHPAD PRISM 6 (Graphpad Software, La Jolla, CA, USA). Statistical analysis was conducted utilizing one-way analysis of variance (ANOVA) followed by a post hoc test. Subsequent to the statistical treatment, the observed discrepancies were determined to be statistically significant (p < 0.05).

[4] = system: progenitor cells in the rodents’ hippocampi; assay: Proliferation stage of neurogenesis: BrdU labeling, rats sacrificed 24 h after BrdU; type: in vivo, rat; details: i.p. 4.0 mg/kg/day for 28 days, BrdU pulse, vs vehicle; for proliferation-promoting activity (number of BrdU+ positive cells): nine-week-old rats (n = 4)
Excerpt: as §1
Adult rats were administered intraperitoneally with the prepared compounds at a dose of 4.0 mg/kg/day for a period of 28 days, followed by a BrdU pulse. After 24 h, the rats were sacrificed, and their brain tissues were isolated and cryosectioned. Immunohistochemical staining was performed and eight brain tissue slices were randomly selected for statistical analyzing.
Eight-week-old (or 10-week-old) SD male rats purchased from Peking University Health Science Center were acclimatized for one week at the Beijing Institute of Technology. All experimental protocols strictly adhered to the regulations governing the management of experimental animals and the animal ethics policy of the Beijing Institute of Technology.
as §2, §3
The assessment of new cell proliferation was conducted using BrdU staining. To eliminate endogenous peroxides, sections were exposed to 1% H2O2 for 30 min at RT. Cellular denaturation was achieved by treating the sections with 2 M HCl at 37 °C for 1 h, followed by rinsing in 0.1 M borate buffer (pH 8.5). Tissue sections were subjected to blocking in a solution consisting of 5% goat serum and 0.5% Triton X-100 in PBS at RT for 1–2 h. The specimens were then incubated overnight at 4 °C with a mouse primary antibody specific to BrdU (diluted at 1:500; Millipore, Billerica, MA, USA). Subsequently, the DAB kit was employed for 2 h of incubation at RT.
as §4

[5] = system: hCMEC/D3 cells; assay: CCK-8 assay for cytotoxicity; type: cell-based; details: hCMEC/D3 cell lines, CCK-8, 48 h incubation
Experimental: hCMEC/D3 cells were obtained from the Cell Resource Center, Peking Union Medical College (PCRC). All cells were acquired in 2023 and were maintained in culture for no more than 10 continuous passages. The cells were cultured in DMEM (11995065, Gibco, Grand Island, NY, USA) supplemented with 10% FBS (164210-50, Procell, Austin, TX, USA), 100 units of penicillin, and […] of streptomycin (PB180120, Procell).
hCMEC/D3 cells (5 × 10^3) were seeded into 96-well plates in 90 μL of DMEM medium containing 10% fetal bovine serum per well. All test compounds were formulated as 10 mM stock solutions in DMSO (final concentration ≤ 0.5%). After overnight incubation, the test compound stock solution was diluted with DMEM medium containing 10% fetal bovine serum to every target concentration, and 10 μL of each was added to each well. Three parallel experiments were set up for each compound. After incubation for 48 h, 10 μL of CCK-8 reagent was added to each well in sequence according to the manufacturer’s instructions. After incubating in a 37 °C incubator for 1–2 h, the absorbance was measured at a wavelength of 450 nm, using a wavelength of 620 nm as a reference, and detected with a ThermoScientific Multiskan FC (Thermo Fisher Scientific). The graphs are representative results, and this experiment was independently repeated three times with similar results.

Structure (SMILES): CC(=O)Nc1ccc(/C=C/c2ccc3c(c2)OCO3)cc1 [WS-6, N-trans-3′,4′-methylenedioxystilben-4-yl acetamide]
- promoting the proliferation of progenitors and differentiation into neurons [1]: excellent capacity

Structure (SMILES): CC(C)NC(=O)c1ccc(/C=C/c2ccc3c(c2)OCO3)cc1 [39b, (E)-4-(2-(benzo[d][1, 3]dioxol-5-yl)vinyl)-N-isopropylbenzamide]
- proliferative activity over the longer 28 day period (number of BrdU+ cells) [2]: could promote the proliferation of progenitors
- neurogenesis-promoting activity (number of NeuN+ and BrdU+ cells, newborn neurons) ([3]; nine-week-old rats (n = 2), i.p. 4.0 mg/kg/day for 28 days, BrdU pulse, Figure 7B): ranked second in terms of activity, without statistical significance
- proliferation-promoting activity (number of BrdU+ newborn cells) ([4]; eleven-week-old rats (n = 2), Figures 3-6, 4 mg/kg/day): significant proliferation-promoting activity; also recorded: activity comparable to that found in amides 8c, 8d, and 29b

Structure (SMILES): CC(C)CCNc1ncccc1C(=O)N1CCN(Cc2ccccc2)CC1 [NSI-189, reference compound]
- neurogenesis-promoting activity (number of NeuN+ and BrdU+ cells), differentiation stage ([3]; Figure 9): no significant neurogenesis-promoting activity
- proliferation-promoting activity (number of BrdU+ positive cells) ([4]; Figure 8): inactive

Structure (SMILES): CC(=O)Nc1ccc(/C=C(\C#N)c2ccc3c(c2)OCO3)cc1 [32a, (Z)-N-(4-(2-(benzo[d][1, 3]dioxol-5-yl)-2-cyanovinyl)phenyl)acetamide]
- neurogenesis-promoting activity (number of NeuN+ and BrdU+ cells), differentiation stage ([3]; Figure 9, 4 mg/kg): significant neurogenesis-promoting activity; also recorded: better activity than the clinical drug NSI-189
- proliferation-promoting activity (number of BrdU+ positive cells) ([4]; Figure 8, 4 mg/kg/day): significant proliferation-promoting activity; also recorded: exhibited proliferative activity
- IC50 [5]: 109 ± 12.9 µM
